Assay results as given in US20070172957A1, “Methods of identifying anti-inflammatory macrolides” (TAISHO PHARMACEUTICAL CO., LTD., priority 2004, published 2007).

System: genes predictive for the anti-inflammatory macrolide effect
Assay: Genes statistically predictive of Clari response: differentially expressed with Clari but not the inactive macrolides MAA or Josa (Appendix E)
Format: cell-based
Text: In the case of the above-mentioned (i) related to arachidonic acid biosynthesis, specifically, methods of the embodiment involve assaying whether a test macrolide alters biosynthesis of arachidonic acid, alters the expression or activities of enzymes involved in the biosynthesis or activation of arachidonic acid (e.g., arachidonic acid CoA synthetase, delta-6 desaturase, fatty acid elongase, and delta-5 desaturase, AA-related genes in Tables 2 and 3), or alters the expression of genes identified as predictive for the anti-inflammatory macrolide effect (Appendix E). Assays in which arachidonic acid or gene expression or enzymatic activity is detected can be carried out after contacting a cell with a test macrolide. Any cell line that secretes prostaglandin or produces arachidonic acid can be used. Epithelial and macrophages lines (e.g., A549 or THP-1) are suitable for this purpose; other cell lines can be identified by carrying out assays such as those described in the specific Examples, below. Alternatively, screening assays can be carried out after adding a test macrolide to an in vitro cell system (e.g., a cellular extract or liver microsome preparation) or an in vitro enzyme assay system.

Structure (SMILES): CC[C@H]1OC(=O)[C@H](C)[C@@H](O[C@H]2C[C@@](C)(OC)[C@@H](O)[C@H](C)O2)[C@H](C)[C@@H](O[C@@H]2O[C@H](C)C[C@H](N(C)C)[C@H]2O)[C@](C)(OC)C[C@@H](C)C(=O)[C@H](C)[C@@H](O)[C@]1(C)O [clarithromycin]
- group mean, gene BCKDK (SpotID 47949, MAA and Josa vs. Clari): 0.94
- group mean, gene DNASE1L1 (SpotID 47950, MAA and Josa vs. Clari): 1.06
- mean group, DNASE1L1 (SpotID 47950, pooled group mean): 1.03
- group mean, gene COX15 (SpotID 47951, MAA and Josa vs. Clari): 0.94
- mean group, USF2 (SpotID 47973, pooled group mean): 1.05
- group mean, gene THBS1 (SpotID 47987, MAA and Josa vs. Clari): 0.60
- mean group, THBS1 (SpotID 47987, pooled group mean): 0.71
- mean group, RPN2 (SpotID 47988, pooled group mean): 1.02
- group mean, gene PTGER1 (SpotID 47995, MAA and Josa vs. Clari): 0.73
- group mean, gene CTSH (SpotID 48000, MAA and Josa vs. Clari): 1.22
- mean group, CUTL1 (SpotID 48004, pooled group mean): 1.02
- group mean, gene BCL2L2 (SpotID 48006, MAA and Josa vs. Clari): 1.02
- mean group, SRF (SpotID 48026, pooled group mean): 1.03
- group mean, gene SCN1B (SpotID 48121, MAA and Josa vs. Clari): 1.07
- mean group, FRDA (SpotID 48137, pooled group mean): 0.90
- group mean, gene SFRS7 (SpotID 48149, MAA and Josa vs. Clari): 0.85
- mean group, SFRS7 (SpotID 48149, pooled group mean): 0.88
- group mean, gene ZAP3 (SpotID 48160, MAA and Josa vs. Clari): 0.92
- mean group, ZAP3 (SpotID 48160, pooled group mean): 0.95
- group mean, gene SNAPC1 (SpotID 48182, MAA and Josa vs. Clari): 0.87
- group mean, gene OPA1 (SpotID 48192, MAA and Josa vs. Clari): 0.90
- group mean, gene BAT8 (SpotID 48214, MAA and Josa vs. Clari): 1.11
- group mean, gene MAPK12 (SpotID 48233, MAA and Josa vs. Clari): 1.05
- mean group, MAPK12 (SpotID 48233, pooled group mean): 1.03
- group mean, gene DAXX (SpotID 48235, MAA and Josa vs. Clari): 0.93
- group mean, gene GRB2 (SpotID 48266, MAA and Josa vs. Clari): 1.06
- mean group, GRB2 (SpotID 48266, pooled group mean): 1.04
- group mean, gene ARHC (SpotID 48280, MAA and Josa vs. Clari): 1.01
- group mean, gene GCN5L1 (SpotID 48301, MAA and Josa vs. Clari): 1.02
- mean group, GCN5L1 (SpotID 48301, pooled group mean): 1.01
- group mean, gene FN1 (SpotID 48328, MAA and Josa vs. Clari): 0.53
- group mean, gene DNMT1 (SpotID 48333, MAA and Josa vs. Clari): 0.79
- mean group, CCT3 (SpotID 48345, pooled group mean): 1.03
- group mean, gene FN1 (SpotID 48348, MAA and Josa vs. Clari): 0.53
- group mean, gene CNOT2 (SpotID 48363, MAA and Josa vs. Clari): 0.92
- group mean, gene MAPK9 (SpotID 48365, MAA and Josa vs. Clari): 0.92
- mean group, MAPK9 (SpotID 48365, pooled group mean): 0.94
- group mean, gene CNOT2 (SpotID 48396, MAA and Josa vs. Clari): 0.91
- group mean, gene HIF1A (SpotID 48397, MAA and Josa vs. Clari): 0.89
- group mean, gene MGEA5 (SpotID 48411, MAA and Josa vs. Clari): 1.19
- mean group, MGEA5 (SpotID 48411, pooled group mean): 1.13
- group mean, gene SERPINB1 (SpotID 48415, MAA and Josa vs. Clari): 1.32
- mean group, SERPINB1 (SpotID 48415, pooled group mean): 1.28
- group mean, gene M6PR (SpotID 48451, MAA and Josa vs. Clari): 1.12
- group mean, gene DDC (SpotID 48456, MAA and Josa vs. Clari): 0.94
- mean group, DDC (SpotID 48456, pooled group mean): 0.97
- mean group, BARD1 (SpotID 48461, pooled group mean): 0.86
- group mean, gene MCM5 (SpotID 48470, MAA and Josa vs. Clari): 0.68
- group mean, gene RBM3 (SpotID 48471, MAA and Josa vs. Clari): 0.87
- mean group, SpotID 48486 (SpotID 48486 (gene symbol not given), pooled group mean): 0.94
- group mean, gene RPL13A (SpotID 48500, MAA and Josa vs. Clari): 0.90
- mean group, RPL13A (SpotID 48500, pooled group mean): 0.92
- group mean, gene USP24 (SpotID 48508, MAA and Josa vs. Clari): 0.87
- group mean, gene ARAF1 (SpotID 48521, MAA and Josa vs. Clari): 0.95
- mean group, ARAF1 (SpotID 48521, pooled group mean): 0.98
- group mean, gene APLP2 (SpotID 48530, MAA and Josa vs. Clari): 1.15
- mean group, APLP2 (SpotID 48530, pooled group mean): 1.10
- mean group, NFE2L1 (SpotID 48557, pooled group mean): 1.06
- mean group, XBP1 (SpotID 48620, pooled group mean): 1.10
- group mean, gene DIP2 (SpotID 48643, MAA and Josa vs. Clari): 0.87
- group mean, gene KIAA0323 (SpotID 48644, MAA and Josa vs. Clari): 1.14
- group mean, gene SDCBP (SpotID 48646, MAA and Josa vs. Clari): 1.11
- mean group, SDCBP (SpotID 48646, pooled group mean): 1.08
- mean group, FECH (SpotID 48654, pooled group mean): 0.98
- group mean, gene CHK (SpotID 48672, MAA and Josa vs. Clari): 1.01
- group mean, gene HSPBP1 (SpotID 48693, MAA and Josa vs. Clari): 0.87
- mean group, HSPBP1 (SpotID 48693, pooled group mean): 0.91
- group mean, gene SIGIRR (SpotID 48705, MAA and Josa vs. Clari): 1.12
- group mean, gene P4HA1 (SpotID 48707, MAA and Josa vs. Clari): 1.25
- mean group, P4HA1 (SpotID 48707, pooled group mean): 1.18
- group mean, gene MKNK2 (SpotID 48713, MAA and Josa vs. Clari): 1.22
- mean group, PPP3CB (SpotID 48717, pooled group mean): 0.95
- group mean, gene IKKE (SpotID 48725, MAA and Josa vs. Clari): 0.97
- mean group, IKKE (SpotID 48725, pooled group mean): 0.94
- mean group, RALA (SpotID 48732, pooled group mean): 1.06
- mean group, MAFB (SpotID 48747, pooled group mean): 0.93
- group mean, gene KIAA0217 (SpotID 48804, MAA and Josa vs. Clari): 0.85
- mean group, KIAA0217 (SpotID 48804, pooled group mean): 0.88
